# Experiments:
# [1] = test system: BRAFV600EPTEN−/− melanoma cells; assay: MTT cell proliferation assay in culture; assay type: cell-based, mouse; conditions: NLRP3 inhibitor (MCC950) in culture
# Text: FIG. 14A-H. (A) NLRP3 Western blot analysis of NTC and NLRP3KD BRAFV600EPTEN−/− melanoma cells. (B) Representative dot plots of PMN-MDSC and CD8+ T cell flow cytometry analysis of resected BRAFV600EPTEN^−/−-NTC and BRAFV600EPTEN^−/−-NLRP3KD stable cell lines. Representative of 2 independent experiments. (C) Top, MTT cell proliferation assay of BRAFV600EPTEN^−/−-NTC, BRAFV600EPTEN−/−-NLRP3KD, BRAFV600EPTEN^−/−-PDL1KD stable cell lines in culture. ns, non-significant. Bottom, MTT cell proliferation assay of BRAFV600EPTEN−/−melanoma cells following treatment with NLRP3 inhibitor (MCC950) in culture. Each performed in triplicate. (D) Tumor growth curve of BRAFV600EPTEN^−/−-NLRP3KDmelanomas with CD8+ T cell ablation. Mice treated with anti-CD8 ab ip daily×3 days followed by anti-CD8 ab one week later (gray boxes). BRAFV600EPTEN^−/−-NTC control tumors also included (n=5). (E) Plasma HSP70 ELISA of BRAFV600EPTEN^−/− melanoma-bearing mice following treatment with IgG isotype control ab, anti-PD-1 ab, or anti-PD-1 ab+MCC950 NLRP3 inhibitor (NLRP3i) (n=4/group). NTC, non-targeted control. KD, knockdown. (F) IL-1β qrt-PCR analysis of BRAFV600EPTEN−/− melanoma cells (n=3). Data normalized to TLR9 expression. (G) Above, IL-1β ELISA of BRAFV600EPTEN−/−-melanoma cell line supernatant after IFNγ/anti-PD-L1 ab treatment in vitro (n=3). […]
# [2] = test system: OT-1 CD8+ T cell:BRAFV600E OVA melanoma coculture; assay: Coculture of OT-1 CD8+ T cells with OVA-expressing melanoma cells followed by Western blot; assay type: cell-based, mouse; conditions: increasing concentrations of NLRP3 inhibitor
# Protocol: OT-1 CD8 cell activation was performed by incubating isolated splenocytes of OT-1 transgenic mice with IL-2 (100 U/ml) and SIINFEKL peptide (1 μg/ml, New England Peptide, BP10-915) for 3 days followed by magnetic bead CD8 purification according to the manufacturer's instructions (Miltenyi biotec, 130-104-075). Activated OT-1 CD8 cells were incubated with Braf^V600EPten^−/−-OVA cells and treated with anti-PD1 ab (1 μg/ml) for 72 hrs at a tumor cell:CD8^+ T cell ratio of 1:5. In separate experiments, Braf^V600EPten^−/− cells were treated with increasing concentrations of Dacarbazine (10 μmol-400 μmol).
# Tumor tissue or cells were homogenized in NP40 lysis buffer (Sigma-Aldrich) supplemented with complete protease inhibitor and phosphatase inhibitor (Roche). Cells were lysed in Laemmli sample buffer after treatment and subjected to SDS-polyacrylamide gel electrophoresis. After transferring onto PVDF membranes (Bio-Rad), monoclonal and polyclonal primary antibodies and appropriate HRP-conjugated secondary antibodies were utilized for blotting. […]
compound,measurement,setting,value
"CC(C)(O)c1coc(S(=O)(=O)NC(=O)Nc2c3c(cc4c2CCC4)CCC3)c1 [MCC950, N-[[(1,2,3,5,6,7-hexahydro-s-indacen-4-yl)amino]carbonyl]-4-(1-hydroxy-1-methylethyl)-2-furansulfonamide]",impact on tumor cell proliferation in vitro,[1],neither pharmacologic inhibition of NLRP3 nor genetic silencing of Nlrp3 had any impact
same,CD8+ T cell-mediated induction of HSP70 release,[2],block

# — patent US12121565B2, “Methods of treatment of specific cancers with NLRP3 inhibitors and anti-PD1/PD-L1 antibodies” (Duke University, priority 2019, dated 2024)
